The target in one test is T1, Adrenergic β2 (Homo sapiens, UniProt P07550).
T1 construct: Adherent H292 cells were removed from tissue culture flasks; endogenous in cells; host or cells: H292 cells
Nature of the test: Adrenergic β2 mediated cAMP production in H292 cells (AlphaScreen cAMP detection). The format is cell-based. On the set-up: key to β2 Int Act: fraction of formoterol maximum activity (formoterol = 1). An outline of the steps:
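H292 cells pre-treated 10 min with rolipram (300 μM final), then given agonist for 60 min at room temperature in HBSS/10 mM HEPES pH 7.4, 1.6% DMSO final. Lysate cAMP measured by AlphaScreen against a cAMP standard curve. Four-parameter fit gives pEC50; intrinsic activity relative to formoterol maximum.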

Test [1] addresses T2, recombinant human adrenergic beta 1 receptors (Homo sapiens, UniProt P08588).
T2 construct: purchased Euroscreen
Nature of the test: Adrenergic β1 [125I]-Iodocyanopindolol binding. The conditions noted are these: inhibition of [125I]-Iodocyanopindolol binding (0.036 nM); read-out: β1 bind p IC50 (converted). The method, then: Membranes containing recombinant human adrenergic beta 1 receptors were obtained from Euroscreen. These were diluted in Assay Buffer (50 mM HEPES, 1 mM EDTA, 120 mM NaCl, 0.1% gelatin, pH 7.4) to provide a final concentration of membranes that gave a clear window between maximum and minimum specific binding.
Assays were performed in U-bottomed 96-well polypropylene plates. 10 μL [^125I]-Iodocyanopindolol (0.036 nM final concentration) and 10 μL of test compound (10× final concentration) were added to each test well. For each assay plate 8 replicates were obtained for [^125I]-Iodocyanopindolol binding in the presence of 10 μL vehicle (10% (v/v) DMSO in Assay Buffer; defining maximum binding) or 10 μL Propranolol (10 μM final is concentration; defining non-specific binding (NSB)). Membranes were then added to achieve a final volume of 100 μL. […] Five washes with 250 μL wash buffer (50 mM HEPES, 1 mM EDTA, 120 mM NaCl, pH 7.4) were performed at 4° C. to remove unbound radioactivity. […] The plates were sealed (TopSeal A) and filter-bound radioactivity was measured with a scintillation counter (TopCount, Packard BioScience) using a 3-minute counting protocol.
Total specific binding (B0) was determined by subtracting the mean NSB from the mean maximum binding. […]

For orientation: IC50 means the point on the concentration scale where inhibition reaches its midpoint.

T1 sequence (P07550 whole entry): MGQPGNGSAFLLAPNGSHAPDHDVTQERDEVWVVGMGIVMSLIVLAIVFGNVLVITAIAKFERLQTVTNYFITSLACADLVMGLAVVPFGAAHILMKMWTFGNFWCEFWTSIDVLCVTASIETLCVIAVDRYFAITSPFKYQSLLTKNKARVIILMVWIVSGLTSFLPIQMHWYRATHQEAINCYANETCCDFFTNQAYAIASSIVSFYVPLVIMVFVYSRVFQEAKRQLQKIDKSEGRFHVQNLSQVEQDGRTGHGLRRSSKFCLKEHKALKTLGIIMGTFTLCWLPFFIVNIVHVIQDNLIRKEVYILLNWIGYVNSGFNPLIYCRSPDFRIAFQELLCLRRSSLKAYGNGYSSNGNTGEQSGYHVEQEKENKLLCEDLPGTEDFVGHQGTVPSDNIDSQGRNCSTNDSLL
T2 sequence (P08588 whole entry): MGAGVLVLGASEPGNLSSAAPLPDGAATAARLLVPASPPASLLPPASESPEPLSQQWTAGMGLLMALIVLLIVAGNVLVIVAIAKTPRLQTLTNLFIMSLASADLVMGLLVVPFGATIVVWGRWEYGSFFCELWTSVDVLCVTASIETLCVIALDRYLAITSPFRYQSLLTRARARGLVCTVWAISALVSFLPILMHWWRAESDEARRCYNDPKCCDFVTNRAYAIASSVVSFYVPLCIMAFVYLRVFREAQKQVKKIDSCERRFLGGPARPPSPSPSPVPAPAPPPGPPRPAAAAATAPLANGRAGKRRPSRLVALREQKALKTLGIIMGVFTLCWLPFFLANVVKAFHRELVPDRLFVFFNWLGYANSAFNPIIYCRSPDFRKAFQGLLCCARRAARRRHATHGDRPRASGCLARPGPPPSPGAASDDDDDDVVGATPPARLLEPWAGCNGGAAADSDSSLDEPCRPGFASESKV

As to `CCCCC[C@@H](C)N(CCNCCc1ccc(O)c2c1OCC(=O)N2)C(=O)CCNCCc1ccccc1` [Example 60, (R)—N-(Heptan-2-yl)-N-(2-(2-(5-hydroxy-3-oxo-3,4-dihydro-2H-benzo[b][1,4]oxazin-8-yl)ethylamino)ethyl)-3-(phenethylamino)propanamide bis(trifluoroacetate)], the EC50 at Adrenergic β2 (H292 cells, cAMP production, 60 minutes at room temperature, 300 μM rolipram, read-out: β2 pEC50 (converted)) was 3.98 nM. Further, the “β2 Int Act” value at Adrenergic β2 (Intrinsic Activity as a fraction relative to the maximum activity determined for formoterol) is given as 0.92. The IC50 in test [1] is 2510 nM.

The record behind these values is patent US20120142646A1, “Novel Compounds 621” (priority 2006, published 2012).
